Results as given in ChEMBL document CHEMBL2203176, “Structure-based bioisosterism design, synthesis and biological evaluation of novel 1,2,4-triazin-6-ylthioacetamides as potent HIV-1 NNRTIs” (Bioorg Med Chem Lett, 2012).

Tests used:
[1] = tested on: Human immunodeficiency virus 2; test: Antiviral activity against HIV2 ROD infected in human MT4 cells assessed as inhibition of virus-induced cytopathicity by MTT assay; format: functional, organism-based; conditions: Human immunodeficiency virus 2, ISOLATE ROD
[2] = tested on: Human immunodeficiency virus 1; test: Antiviral activity against HIV1 RES056 harboring reverse transcriptase K103N/Y181C mutant infected in human MT4 cells assessed as inhibition of virus-induced cytopathicity by MTT assay; format: functional, organism-based; conditions: Human immunodeficiency virus 1, RES056, MT4
[3] = tested on: Human immunodeficiency virus 1; test: Antiviral activity against HIV1 3B infected in human MT4 cells assessed as inhibition of virus-induced cytopathicity by MTT assay; format: functional, organism-based; conditions: Human immunodeficiency virus 1, 3B
[4] = tested on: Human immunodeficiency virus 1; test: Ratio of dideoxycytidine EC50 to compound EC50 for HIV1 3B; format: functional
[5] = tested on: Human immunodeficiency virus 1; test: Ratio of delavirdine EC50 to compound EC50 for HIV1 3B; format: functional
[6] = tested on: Human immunodeficiency virus 1; test: Ratio of nevirapine EC50 to compound EC50 for HIV1 3B; format: functional
[7] = Cytotoxicity against human MT4 cells by MTT assay; format: cell-based
[8] = Selectivity index, ratio of CC50 for human MT4 cells to EC50 for HIV1 3B; format: toxicity, cell-based; conditions: read-out: Ratio CC50/EC50
[9] = Selectivity index, ratio of CC50 for human MT4 cells to EC50 for HIV2 ROD; format: toxicity, cell-based; conditions: read-out: Ratio CC50/EC50
[10] = Selectivity index, ratio of CC50 for human MT4 cells to EC50 for HIV1 RES056 harboring reverse transcriptase K103N/Y181C mutant; format: toxicity, cell-based; conditions: read-out: Ratio CC50/EC50
[11] = target: Human immunodeficiency virus type 1 reverse transcriptase (Human immunodeficiency virus 1, UniProt Q72547); test: Inhibition of HIV1 reverse transcriptase assessed as biotin-dUTP incorporation into enzyme using […] as template primer by colorimetric analysis

NS(=O)(=O)c1ccc(NC(=O)CSc2nncnc2-c2cccc3ccccc23)c(Br)c1
EC50 [1]: > 23 µM | EC50 [2]: 3.3 µM | EC50 [3]: 0.018 µM | Ratio EC50 [4]: 78 | Ratio EC50 [5]: 2 | Ratio EC50 [6]: 11 | CC50 [7]: 23 µM | selectivity ratio [8]: 1290 | selectivity ratio [9]: < 1 | selectivity ratio [10]: 7

O=C(CSc1nncnc1-c1ccccc1Cl)Nc1cccnc1Cl
EC50 [1]: > 167 µM | EC50 [2]: 23 µM | EC50 [3]: 0.074 µM | CC50 [7]: 167 µM | selectivity ratio [8]: 2240 | selectivity ratio [9]: < 1 | selectivity ratio [10]: 7

O=C(CSc1nncnc1-c1ccccc1Cl)Nc1ccc(Cl)cc1Cl
EC50 [1]: > 51 µM | EC50 [2]: > 51 µM | EC50 [3]: 0.258 µM | CC50 [7]: 51 µM | selectivity ratio [8]: 190 | selectivity ratio [9]: < 1 | selectivity ratio [10]: < 1

Cc1ccccc1NC(=O)CSc1nncnc1-c1ccccc1Cl
EC50 [1]: > 142 µM | EC50 [2]: > 142 µM | EC50 [3]: 0.297 µM | CC50 [7]: 142 µM | selectivity ratio [8]: 465 | selectivity ratio [9]: < 1 | selectivity ratio [10]: < 1

COC(=O)c1ccc(NC(=O)CSc2nncnc2-c2ccccc2Cl)c(Br)c1
EC50 [1]: > 59 µM | EC50 [2]: > 59 µM | EC50 [3]: 0.19 µM | CC50 [7]: 59 µM | selectivity ratio [8]: 311 | selectivity ratio [9]: < 1 | selectivity ratio [10]: < 1

CCOC(=O)c1ccc(NC(=O)CSc2nncnc2-c2ccccc2Cl)c(Br)c1
EC50 [1]: > 69 µM | EC50 [2]: > 69 µM | EC50 [3]: 0.236 µM | CC50 [7]: 69 µM | selectivity ratio [8]: 302 | selectivity ratio [9]: < 1 | selectivity ratio [10]: < 1

O=C(CSc1nncnc1-c1ccccc1Cl)Nc1ccccn1
EC50 [1]: > 123 µM | EC50 [2]: > 123 µM | EC50 [3]: 3.3 µM | CC50 [7]: 172 µM | selectivity ratio [8]: 51 | selectivity ratio [9]: < 1 | selectivity ratio [10]: < 1

COC(=O)c1sccc1NC(=O)CSc1nncnc1-c1ccccc1Cl
EC50 [1]: > 105 µM | EC50 [2]: > 105 µM | EC50 [3]: 2.9 µM | CC50 [7]: 105 µM | selectivity ratio [8]: 35 | selectivity ratio [9]: < 1 | selectivity ratio [10]: < 1

O=C(CSc1nncnc1-c1ccccc1Cl)N1CCc2ccccc2C1
EC50 [1]: > 38 µM | EC50 [2]: ≥ 43 µM | EC50 [3]: 0.731 µM | CC50 [7]: ≥ 38 µM | selectivity ratio [8]: ≥ 52 | selectivity ratio [9]: > 1 | selectivity ratio [10]: < 1

O=C(CSc1nncnc1-c1cccc2ccccc12)Nc1ccccc1
EC50 [1]: > 154 µM | EC50 [2]: > 154 µM | EC50 [3]: 1.53 µM | CC50 [7]: 154 µM | selectivity ratio [8]: 101 | selectivity ratio [9]: < 1 | selectivity ratio [10]: < 1

O=C(CSc1nncnc1-c1cccc2ccccc12)Nc1ccccc1Cl
EC50 [1]: > 63 µM | EC50 [2]: > 63 µM | EC50 [3]: 0.135 µM | CC50 [7]: 63 µM | selectivity ratio [8]: 470 | selectivity ratio [9]: < 1 | selectivity ratio [10]: < 1

O=C(CSc1nncnc1-c1cccc2ccccc12)Nc1ccccc1F
EC50 [1]: > 65 µM | EC50 [2]: > 65 µM | EC50 [3]: 0.359 µM | CC50 [7]: 65 µM | selectivity ratio [8]: 184 | selectivity ratio [9]: < 1 | selectivity ratio [10]: < 1

O=C(CSc1nncnc1-c1cccc2ccccc12)Nc1ccccc1Br
EC50 [1]: > 87 µM | EC50 [2]: ≥ 43 µM | EC50 [3]: 0.173 µM | CC50 [7]: 87 µM | selectivity ratio [8]: 503 | selectivity ratio [9]: < 1 | selectivity ratio [10]: ≤ 2

Cc1ccc(NC(=O)CSc2nncnc2-c2cccc3ccccc23)c(Br)c1
EC50 [1]: > 166 µM | EC50 [2]: 46 µM | EC50 [3]: 0.195 µM | CC50 [7]: 166 µM | selectivity ratio [8]: 852 | selectivity ratio [9]: < 1 | selectivity ratio [10]: 4

Cc1ccc(NC(=O)CSc2nncnc2-c2cccc3ccccc23)c([N+](=O)[O-])c1
EC50 [1]: > 147 µM | EC50 [2]: 5.2 µM | EC50 [3]: 0.046 µM | CC50 [7]: 147 µM | selectivity ratio [8]: 3170 | selectivity ratio [9]: < 1 | selectivity ratio [10]: 28

O=C(CSc1nncnc1-c1cccc2ccccc12)Nc1ccccc1[N+](=O)[O-]
EC50 [1]: > 142 µM | EC50 [2]: 5.6 µM | EC50 [3]: 0.043 µM | CC50 [7]: 142 µM | selectivity ratio [8]: 3260 | selectivity ratio [9]: < 1 | selectivity ratio [10]: 25

CC(=O)c1ccc(NC(=O)CSc2nncnc2-c2cccc3ccccc23)c(Br)c1
EC50 [1]: > 133 µM | EC50 [2]: 4.3 µM | EC50 [3]: 0.051 µM | CC50 [7]: 133 µM | selectivity ratio [8]: 2680 | selectivity ratio [9]: < 1 | selectivity ratio [10]: 31

O=C(CSc1nncnc1-c1ccccc1Cl)Nc1ccccc1
EC50 [1]: > 127 µM | EC50 [2]: > 127 µM | EC50 [3]: 0.42 µM | CC50 [7]: 127 µM | selectivity ratio [8]: 296 | selectivity ratio [9]: < 1 | selectivity ratio [10]: < 1

O=C(CSc1nncnc1-c1ccccc1Cl)Nc1ccccc1F
EC50 [1]: > 98 µM | EC50 [2]: > 98 µM | EC50 [3]: 0.21 µM | CC50 [7]: 98 µM | selectivity ratio [8]: 471 | selectivity ratio [9]: < 1 | selectivity ratio [10]: < 1

O=C(CSc1nncnc1-c1ccccc1Cl)Nc1ccccc1Br
EC50 [1]: > 73 µM | EC50 [2]: ≥ 55 µM | EC50 [3]: 0.092 µM | CC50 [7]: 73 µM | selectivity ratio [8]: 792 | selectivity ratio [9]: < 1 | selectivity ratio [10]: ≤ 1

Cc1ccc(NC(=O)CSc2nncnc2-c2ccccc2Cl)c(Br)c1
EC50 [1]: > 45 µM | EC50 [2]: ≥ 42 µM | EC50 [3]: 0.178 µM | CC50 [7]: 45 µM | selectivity ratio [8]: 253 | selectivity ratio [9]: < 1 | selectivity ratio [10]: ≤ 1

Cc1ccc(NC(=O)CSc2nncnc2-c2ccccc2Cl)c([N+](=O)[O-])c1
EC50 [1]: > 158 µM | EC50 [2]: ≥ 22 µM | EC50 [3]: 0.048 µM | IC50 [11]: 18 µM | CC50 [7]: 158 µM | selectivity ratio [8]: 3330 | selectivity ratio [9]: < 1 | selectivity ratio [10]: ≤ 1

O=C(CSc1nncnc1-c1ccccc1Cl)Nc1ccccc1[N+](=O)[O-]
EC50 [1]: > 63 µM | EC50 [2]: ≥ 11 µM | EC50 [3]: 0.023 µM | IC50 [11]: 6.5 µM | CC50 [7]: 63 µM | selectivity ratio [8]: 2160 | selectivity ratio [9]: < 1 | selectivity ratio [10]: ≤ 6

CC(=O)c1ccc(NC(=O)CSc2nncnc2-c2ccccc2Cl)c(Br)c1
EC50 [1]: > 35 µM | EC50 [2]: > 34 µM | EC50 [3]: 0.086 µM | CC50 [7]: 34 µM | selectivity ratio [8]: 404 | selectivity ratio [9]: < 1 | selectivity ratio [10]: < 1
